Assay results as given in patent publication US20150203512.
Like-named read-outs stand apart in the source and are kept apart here.

Conditions: rcm bond, Zhan-1B, dichloromethane, 25.0 °C

## CN1C(=O)OCCCC=Cc2cc(F)ccc2CNC(=O)c2nc3n(c(=O)c2OS(C)(=O)=O)CCCCC31 (centres unmarked)
From C=CCCCOC(=O)N(C)C1CCCCn2c1nc(C(=O)NCc1ccc(F)cc1C=C)c(OS(C)(=O)=O)c2=O, 4.25 mM, 15.0 h
  ring closure, yield of all isomers: 97%

## CN1C(=O)C=CCCNc2cc(F)ccc2CNC(=O)c2nc3n(c(=O)c2O)CCCCC31 (centres unmarked)
From C=CCCNc1cc(F)ccc1CNC(=O)c1nc2n(c(=O)c1O)CCCCC2N(C)C(=O)C=C, 2.0 mM, 20.0 h
  ring closure, yield of all isomers: 53%

## CN1C(=O)C=CCCOc2cc(F)ccc2CNC(=O)c2nc3n(c(=O)c2O)CCCCC31 (centres unmarked)
From C=CCCOc1cc(F)ccc1CNC(=O)c1nc2n(c(=O)c1O)CCCCC2N(C)C(=O)C=C, 5.14 mM, 15.0 h
  ring closure, yield of all isomers: 51%

## CC[C@H]1COC[C@@H]2c3nc(c(O)c(=O)n31)C(=O)NCc1ccc(F)cc1OCCC=CC(=O)N2C
From C=CCCOc1cc(F)ccc1CNC(=O)c1nc2n(c(=O)c1O)[C@@H](CC)COC[C@H]2N(C)C(=O)C=C, 3.88 mM, 15.0 h
  ring closure, yield of all isomers: 51%

## CN1CCC=CC(=O)N(C)C2CCCCn3c2nc(c(O)c3=O)C(=O)NCc2ccc(F)cc21 (centres unmarked)
From C=CCCN(C)c1cc(F)ccc1CNC(=O)c1nc2n(c(=O)c1O)CCCCC2N(C)C(=O)C=C, 1.4 mM, 20.0 h
  ring closure, yield of all isomers: 63%

## CC[C@H]1COC[C@@H]2c3nc(c(O)c(=O)n31)C(=O)NCc1ccc(F)cc1N(C)CCC=CC(=O)N2C
From C=CCCN(C)c1cc(F)ccc1CNC(=O)c1nc2n(c(=O)c1O)[C@@H](CC)COC[C@H]2N(C)C(=O)C=C, 2.4 mM, 15.0 h
  ring closure, yield of all isomers: 62%

## CN1CC=Cc2cc(F)ccc2CNC(=O)c2nc3n(c(=O)c2OS(C)(=O)=O)CCCCC3N(C)C(=O)C1=O (centres unmarked)
From C=CCN(C)C(=O)C(=O)N(C)C1CCCCn2c1nc(C(=O)NCc1ccc(F)cc1C=C)c(OS(C)(=O)=O)c2=O, 2.6 mM, 60.0 h
  ring closure, yield of all isomers: 67%

## CN1C(=O)CCCC=Cc2cc(F)ccc2CNC(=O)c2nc3n(c(=O)c2OS(C)(=O)=O)CCCCC31 (centres unmarked)
From C=CCCCC(=O)N(C)C1CCCCn2c1nc(C(=O)NCc1ccc(F)cc1C=C)c(OS(C)(=O)=O)c2=O, 0.9 mM, 24.0 h
  ring closure, yield of all isomers: 85%
